Data: patent US20160073633A1, “CROP ENHANCEMENT” (SYNGENTA PARTICIPATIONS AG, priority 2013, published 2016)
Entries after “also recorded” stand apart in the source; their conditions may differ.

Legend:
potato tubers [1] = assay: Experiment 1.1: azoxystrobin sprayed on uncovered potato tubers, no cold stress, plant growth vs check; assay type: in vivo
Method: A commercially available SC100 formulation of azoxystrobin was sprayed directly to uncovered potato tubers, which were sitting on soil (50% drench soil mixed with 50% sand), at two different rates: • 7.5 g/ha • 3.8 g/ha
(§1) The spray volume was 200 l/ha.
(§2) The check had no treatment of azoxystrobin.
(§3) The trials were repeated in 6 troughs with 3 tubers each.
Varieties tested were Allians, Belana, Marabel and Roberta. Each were tested as pre-germinated (i.e. treatment was applied when the potato tuber had 2-3 mm long sprouts) tubers and as non germinated tubers.
The temperature was about 17° C. during the day and about 15° C. during the night.
(§4) No pest pressure present.
Plant vitality was measured with the “Green Seeker” system.

potato tubers [2] = assay: Experiment 1.2: azoxystrobin sprayed on uncovered pre-germinated potato tubers at about 10° C. (simulated cold stress), plant growth vs check; assay type: in vivo; details: 3 g/ha; for % increased growth vs Check (visual plant growth): pre-germinated, 21 days after application
Method: A commercially available SC100 formulation of azoxystrobin was sprayed directly to uncovered potato tubers, which were sitting on soil (50% drench soil mixed with 50% sand), at: • 3 g/ha
as §1, §2, §3
Varieties tested were Allians, Belana, Marabel and Roberta. Each were tested as pre-germinated (i.e. treatment was applied when the potato tuber had 2-3 mm long sprouts) tubers.
The temperature was held at about 10° C. during the day and night to simulate cold stress.
as §4
Visual Plant Growth was Measured 21 Days after Application: […]

[3] = 21 and 34 days after application

SMILES: CO/C=C(/C(=O)OC)c1ccccc1Oc1cc(Oc2ccccc2C#N)ncn1 [azoxystrobin]
- Shoot number in comparison with the check (potato tubers [1]; 7.5 g/ha and 3.8 g/ha, spray 200 l/ha, about 17° C. day/15° C. night, Allians, Belana, Marabel, Roberta, pre-germinated and non germinated tubers): increased number of shoots
- Shoot fresh mass in comparison with the check (potato tubers [1]; 7.5 g/ha and 3.8 g/ha, spray 200 l/ha, about 17° C. day/15° C. night, all varieties): increased shoot fresh mass; also recorded: significantly increased
- Plant vitality (Green Seeker) vs check (potato tubers [1]; Allians and Roberta, pre-germinated tubers, about 17° C. day/15° C. night): better than check
- Plant vitality (Green Seeker) in comparison with the check, FIG. 3 (potato tubers [1]; each trial, 7.5 g/ha and 3.8 g/ha): increased plant vitality
- Plant vitality (Green Seeker) vs check (potato tubers [1]; low rate treatment (3.8 g/ha), about 17° C. day/15° C. night): often showed a lower value
- Number of shoots in comparison with the check (potato tubers [2]; [3]): increased number of shoots
- Shoot length in comparison with the check (potato tubers [2]; [3]): increased shoot length
- Visually more shoot than check (potato tubers [2]; across varieties): up to 38%
- Growth of treated tubers vs untreated check (potato tubers [2]; all varieties): grew better than untreated check
- % increased growth vs Check (visual plant growth) (potato tubers [2]; variety Allians): 38%
- % increased growth vs Check (visual plant growth) (potato tubers [2]; variety Belana): 12%
- % increased growth vs Check (visual plant growth) (potato tubers [2]; variety Marabel): 37%
- % increased growth vs Check (visual plant growth) (potato tubers [2]; variety Roberta): 10%
